“Also recorded” adds a separate entry of the source.
Columns and labels:
Assay type in all cases: cell-based, human
[1] = test system: PBX1, 2 and 3 association with HOX proteins; assay: Cross-linking and Western blot of PBX proteins in KG1a cells (Example 2); conditions: 24 hours, 1 μM peptide, EDC cross-linking
Experimental: HXP and control peptides were as described in Example 1. KG1a cells were grown as described in Example 1. KG1a cells were cultured for 24 hours without treatment, or in the presence of 1 μM HXP peptide or control peptide. The cells were harvested and lysed. One aliquot of the cells was subject to cross-linking. Frozen cells were lysed using standard techniques and […] of lysate was incubated for 30 minutes at room temperature in 4 mM 1-ethyl-3-[3-(dimethyl-amino)propyl]carbodimide (EDC), 4 mM sulpho-NHS, 20 mM HEPES (pH 7.5), 5 mM MgCl2, and 0.03% (w/v) […] to cross-link non-covalently associated proteins. The reaction was stopped by the addition of ammonium acetate to a final concentration of 50 mM. The other aliquot was frozen without cross-linking.
Proteins were extracted from the cells of both aliquots by standard techniques and separated by gel electrophoresis. The gels were probed by Western blot with an antibody raised against PBX1, 2 and 3 (sc-888, Santa Cruz Inc. USA) or an anti-beta actin antibody (sc-1615, Santa Cruz Inc. USA).

[2] = test system: PBX/HOX dimers; assay: Western blotting of PBX and PBX/HOX dimers in CD133+ cells (Example 3); conditions: 20 μg/ml, EDC cross-linking
Experimental: (§1) CD133+ cells (another name for AC133+ cells) were seeded in duplicate at 4×10^4 cells/ml in IMDM (Life Technologies), 10% FCS (Sigma Aldrich) and gentamycin (50 μg/ml Life Technologies) and Thrombopoietin (TPO) 10 ng/ml, Flt3-Ligand (FL) 50 ng/ml & c-KitL (K) 20 ng/ml), all obtained from R and D systems Ltd., UK. (Forraz et al., 2002). The HXP peptide (N-term: WYPWMKKHHRQIKIWFQNRRMKWKK: C-term; Eurogentec, Belgium) and control CXP peptide (N-term: WCCLADRHGRQIKIWFQNRRMKWKK: C-term; Eurogentec, Belgium) were added to culture medium at a concentration of 20 μg/ml. To withdraw peptides from culture, cells were washed twice in IMDM or RPMI and reseeded at prewash cell densities. Primary cells were cultured for 3 weeks at 37° C., 5% CO2 in humidified atmosphere and enumerated by a […] exclusion method with a heamocytometer.
Protein was extracted from HXP-treated or CXP-treated CD133+ cells (20 μg/ml). C-20 antibody that recognises all three human PBX gene proteins (sc-888, Santa Cruz Biotechnology Inc., USA; Monica et al., 1991). Protein cross linking was performed with 2 mM 1-ethyl-3-[3-(dimethylamino)propyl]carbodiimide (EDC) (Pierce Biotechnology, USA), in cell lysates diluted 1:10 in conjugation buffer (0.1M 2-[N-morpholino]ethane sulphonic acid, pH 5). […]

[3] = test system: CD133+ cells; assay: Cell cycle status of CD133+ cells (G0-G1)
Experimental: Cells to be investigated were harvested and washed in PBS at 400 g for 10 min. Pelleted cells were then fixed in ice-cold 70% ethanol. Fixed cells were subsequently washed twice in PBS (600 g; 10 min) and incubated in 100 μl of ribonuclease (100 μg/ml; Sigma Aldrich) for 5 min (room temperature) prior to addition of 400 μl of propidium iodide (50 μg/ml; Sigma Aldrich) and 30 minutes incubation (37° C.). Cells were then analysed for cell cycle status on FACScan flow cytometer (Becton Dickinson, USA) and using WinMDI and Cylchred softwares.
as §1

[4] = test system: CD133+ cells; assay: RT-PCR of HOX-PBX target genes in CD133+ cells
Experimental: Total RNA was isolated from liquid nitrogen snap-frozen cells using RNeasy Mini Kit protocol (Qiagen, Crawley, UK). 50 μl reverse transcription reactions using 1 μg of RNA per reaction heated at 75° C. cDNA with 1 μg of oligo-dT for 10 mins. Samples were cooled on ice and mixed with 200 units of M-MLV reverse transcriptase (Promega, Southampton, UK) in its associated buffer, 400 μM of dNTPs (Promega), and 40 units of RNAseout (Invitrogen, Paisley, UK). Samples were then incubated at 37° C. for one hour and finally heated at 75° C. for 5 mins. PCR reactions (35 cycles, 94° C. 30 sec, 55° C. 30 sec, 72° C. 1 min) were carried out in a 20 μl reaction using JumpStart ReadyMix REDTaq DNA polymerase (Sigma-Aldrich) using an identical amount of cDNA per reaction with 1 μM of forward and reverse primers.

[5] = test system: KG1a, HL60 and U937 leukaemic cell lines; assay: Growth of leukaemic cell lines over 48 hours (Example 3); conditions: 20 μg/ml
Experimental: KG1a, HL60 and U937 cell lines were seeded as described in Example 1.
All cell lines were grown with HXP peptide (20 μg/ml) or CXP (20 μg/ml). Cell lines were cultured for various time points at 37° C., 5% CO2 in humidified atmosphere and enumerated at various time points.

[6] = test system: KG1a cells; assay: RT-PCR of stem/progenitor and maturation markers in KG1a cells; conditions: 7 days of treatment
Experimental: Total RNA was extracted from cultured human cells using the Rneasy mini kit (Quiagen) and following the manufacturer's instructions. 3 μg of RNA was used in subsequent reverse transcription reactions. The RNA was mixed with a poly T15 oligo to 5 microgrammes/ml and heated to 75° C. for 5 minutes. After cooling on ice, the following additional reagents were added; dNTPs to 0.4 mM, RNase OUT (Promega) to 1.6 U/μl, Moloney Murine Leukemia Virus Reverse Transcriptase (M-MLRvT) RnaseH— point mutant (Promega) to 8 U/μl and the appropriate buffer (supplied by the manufacturer) to x1 concentration. The mixture was incubated for one hour at 37° C., heated to 70° C. for two minutes and cooled on ice.
PCR reactions were all performed in a total volume of 40 μl. For each we used 1 μl of the M-MLRvT reaction (as described above), 0.2 nmols of each primer and 20 microliters of Redimix pre-mixed PCR components (Sigma). All reactions were cycled at 94° C. for 30 seconds, 55° C. for 30 seconds and 72° C. for 60 seconds. 30 cycles were used for all primer sets except those for beta-actin, for which 23 cycles were used.

## WYPWMKKHHRQIKIWFQNRRMKWKK [HXP peptide]
[1]
  association of PBX proteins with other proteins (HOX proteins): none of the PBX isoforms from the HXP peptide treated cells were associated with other proteins
[2]
  binding of PBX to other proteins / formation of PBX/HOX dimers: prevented binding of PBX to other proteins; also recorded: distrupted the formation of PBX/HOX dimers
[3]; compared to the HXP peptide-treated group
  proportion of cells in phase G0-G1 upon withdrawing HXP peptide: lower proportion of cells remained in phase G0-G1
[3]; day 18 of culture, vs CXP4 treated cells, p<0.05
  more cells in phase G0-G1 of the cell cycle than the control group: 9.9%
[4]; 18 days
  CD38 gene expression: up-regulated
  expression of HOX-PBX target genes (CDC25, CDK2, N-Ras, Ras-like GTP binding protein, MMP19, MMP1, MAPK, RAB27A, Bak2, p53, CTCF, EIF4E, CD133, CD34, TERT, HOX B4, B8 and A9): significantly down regulated
[4]; withdrawal at day 7
  expression of HOX-PBX target genes after withdrawing HXP peptide: up-regulation of all of these genes with the exception of MAPK
[5]
  cell growth inhibition on leukaemic cell lines: potent cell growth inhibition
  time at which cell growth inhibition is apparent: two
[6]
  markers of maturation/differentiation (CD38): elevated
  markers of stem/progenitor cells (AC133, CD34, HOXB4, HOXB8 and HOXA9): diminished
